Target: T1, Human PTP1B (Homo sapiens, UniProt P18031)
T1 construct: Human PTP1B (amino acid residues 1-298, cloned from a human placental library); made in house; host or cells: E. coli BL21(DE3)
T1 sequence (P18031 1-298): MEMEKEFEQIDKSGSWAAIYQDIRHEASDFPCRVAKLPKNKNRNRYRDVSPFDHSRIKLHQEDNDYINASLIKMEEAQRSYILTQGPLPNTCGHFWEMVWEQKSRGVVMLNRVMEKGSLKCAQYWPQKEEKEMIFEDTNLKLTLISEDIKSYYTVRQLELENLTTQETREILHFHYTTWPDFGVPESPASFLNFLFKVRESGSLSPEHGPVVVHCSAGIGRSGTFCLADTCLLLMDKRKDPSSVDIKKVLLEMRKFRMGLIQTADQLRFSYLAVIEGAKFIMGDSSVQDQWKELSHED
Test: PTP1B activity, pNPP substrate, 96-well plate
Type: biochemical
Conditions: 2 mM, control wells
Procedure: Human PTP1B (amino acid residues 1-298, cloned from a human placental library), without the GST tag and thrombin cleavage site, was inserted into a pMB replicon and transformed into E. coli BL21(DE3), a strain containing a chromosomal copy of the gene for T7 RNA polymerase under control of a lacUV5 promoter. Expression of PTP1B was induced with isopropyl thiogalactose and cells were lysed in lysis buffer comprising 50 mM Tris-HCl pH 7.5, 10% glycerol, 1 mM EDTA, 3 mM DTT, 3 mM MgCl2, and 0.2 mg/ml lysozyme with 1 mg/ml DNAse I. The soluble protein was purified by ion exchange, hydrophobic interaction and gel exclusion chromatography for use in assays to identify PTP1B inhibitors. The plasmid pGEX2K-SHP2 which encoded the catalytic domain of human SHP-2 (residues 252-529) was used to transform E. coli cells. […]
Human PTP1B activity was measured using p-nitrophenol phosphate (pNPP) as substrate in a 96-well microtiter plate format. An assay pH of 7.2 is used for standard assays (measured extinction coefficient=9800 at pH 7.2).
Standard assays were conducted at room temperature in a total volume of 0.2 ml that contains Hepes buffer (50 mM, pH 7.2), NaCl (50 mM), EDTA (1 mM), DTT (1 mM), bovine serum albumin (1 mg/ml), pNPP (1.25 mM) and PTP1B (500 ng/ml, 13.5 nM). […] The OD^405 was subsequently measured. […]

[Na+].[Na+].[Na+].[O]=[V]([O-])([O-])[O-] [sodium orthovanadate]
inhibition of PTP1B-catalyzed hydrolysis of pNPP: completely
